# Test results taken from patent publication US9499550B2 (BRISTOL-MYERS SQUIBB COMPANY, priority 2012, dated 2016).
# Assays:
# [1] = tested on: HCV genotype 1a (H77 strain) replicon in HUH-7 cells; assay: HCV replicon luciferase reporter assay, genotype 1a; format: cell-based; settings: Hepatitis C virus, Huh-7, 72 h, HCV genotype 1a replicon luciferase assay, 3 days incubation, range class, read-out: LE_1a (EC50, range)
# In short: (§1)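 Replicon inhibition for both genotypes was measured as Renilla luciferase signal (EnduRen, 7.5 μM final, 2 h) after 3-day, 37° C exposure of replicon-bearing HUH-7 cells in 4% FCS DMEM, 0.5% DMSO. The 1b construct carries S1179I; the 1a H77 construct carries P1496L and S2204I. Twenty-point, 3-fold dilutions were fitted four-parametrically for EC50, and CC50 was taken from multiplexed Cell Titer-Blue.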
# [2] = tested on: HCV genotype 1b (Con1) replicon in HUH-7 cells; assay: HCV replicon luciferase reporter assay, genotype 1b; format: cell-based; settings: Hepatitis C virus, Huh-7, 72 h, HCV genotype 1b replicon luciferase assay, 3 days incubation, range class, read-out: LE_1b (EC50, range)
# In short: as §1
SMILES,EC50 [1] [nM],EC50 [2] [nM]
"COc1cc(F)cc2c(O[C@@H]3C[C@H]4C(=O)N[C@]5(C(=O)NS(=O)(=O)C6(C)CC6)C[C@H]5/C=C\CC[C@@H](C)C[C@@H](C)[C@H](NC(=O)O[C@H](C)C(F)(F)F)C(=O)N4C3)nccc12 [Compound 3158, (R)-1,1,1-trifluoropropan-2-yl ((2R,6S,7R,9R,13aS,14aR,16aS,Z)-2-((7-fluoro-5-methoxyisoquinolin-1-yl)oxy)-7,9-dimethyl-14a-(((1-methylcyclopropyl)sulfonyl)carbamoyl)-5,16-dioxo-1,2,3,5,6,7,8,9,10,11,13a,14,14a,15,16,16a-hexadecahydrocyclopropa[e]pyrrolo[1,2-a][1,4]diazacyclopentadecin-6-yl)carbamate]",< 5.46,< 5.46
"COc1cc(F)cc2c(O[C@@H]3C[C@H]4C(=O)N[C@]5(C(=O)NS(=O)(=O)C6(C)CC6)C[C@H]5/C=C\CC[C@H](C)C[C@@H](C)[C@H](NC(=O)O[C@@H]5C[C@@H]6C[C@@H]6C5)C(=O)N4C3)nccc12 [Compound 3159, (1R,3r,5S)-bicyclo[3.1.0]hexan-3-yl((2R,6S,7R,9S,13aS,14aR,16aS,Z)-2-((7-fluoro-5-methoxyisoquinolin-1-yl)oxy)-7,9-dimethyl-14a-(((1-methylcyclopropyl)sulfonyl)carbamoyl)-5,16-dioxo-1,2,3,5,6,7,8,9,10,11,13a,14,14a,15,16,16a-hexadecahydrocyclopropa[e]pyrrolo[1,2-a][1,4]diazacyclopentadecin-6-yl)carbamate]",4.82 to 103,< 5.46
"COc1cc(F)cc2c(O[C@@H]3C[C@H]4C(=O)N[C@]5(C(=O)NS(=O)(=O)C6(C)CC6)C[C@H]5/C=C\CC[C@@H](C)C[C@@H](C)[C@H](NC(=O)O[C@@H]5C[C@@H]6C[C@@H]6C5)C(=O)N4C3)nccc12 [Compound 3160, (1R,3r,5S)-bicyclo[3.1.0]hexan-3-yl((2R,6S,7R,9R,13aS,14aR,16aS,Z)-2-((7-fluoro-5-methoxyisoquinolin-1-yl)oxy)-7,9-dimethyl-14a-(((1-methylcyclopropyl)sulfonyl)carbamoyl)-5,16-dioxo-1,2,3,5,6,7,8,9,10,11,13a,14,14a,15,16,16a-hexadecahydrocyclopropa[e]pyrrolo[1,2-a][1,4]diazacyclopentadecin-6-yl)carbamate]",< 5.46,< 5.46
"COc1cc(F)cc2c(O[C@@H]3C[C@H]4C(=O)N[C@]5(C(=O)NS(=O)(=O)C6(C)CC6)C[C@H]5/C=C\CC[C@H](C)C[C@@H](C)[C@H](NC(=O)OCC5(C)CC5)C(=O)N4C3)nccc12 [Compound 3161, (1-methylcyclopropyl)methyl ((2R,6S,7R,9S,13aS,14aR,16aS,Z)-2-((7-fluoro-5-methoxyisoquinolin-1-yl)oxy)-7,9-dimethyl-14a-(((1-methylcyclopropyl)sulfonyl)carbamoyl)-5,16-dioxo-1,2,3,5,6,7,8,9,10,11,13a,14,14a,15,16,16a-hexadecahydrocyclopropa[e]pyrrolo[1,2-a][1,4]diazacyclopentadecin-6-yl)carbamate]",4.82 to 103,< 5.46
"COc1cc(F)cc2c(O[C@@H]3C[C@H]4C(=O)N[C@]5(C(=O)NS(=O)(=O)C6(C)CC6)C[C@H]5/C=C\CC[C@@H](C)C[C@@H](C)[C@H](NC(=O)OCC5(C)CC5)C(=O)N4C3)nccc12 [Compound 3162, (1-methylcyclopropyl)methyl ((2R,6S,7R,9R,13aS,14aR,16aS,Z)-2-((7-fluoro-5-methoxyisoquinolin-1-yl)oxy)-7,9-dimethyl-14a-(((1-methylcyclopropyl)sulfonyl)carbamoyl)-5,16-dioxo-1,2,3,5,6,7,8,9,10,11,13a,14,14a,15,16,16a-hexadecahydrocyclopropa[e]pyrrolo[1,2-a][1,4]diazacyclopentadecin-6-yl)carbamate]",< 5.46,< 5.46
"COc1cc(F)cc2c(O[C@@H]3C[C@H]4C(=O)N[C@]5(C(=O)NS(=O)(=O)C6CC6)C[C@H]5/C=C\CC[C@H](C)C[C@@H](C)[C@H](NC(=O)OC(C)(C)C)C(=O)N4C3)nccc12 [Compound 3163, tert-butyl ((2R,6S,7R,9S,13aS,14aR,16aS,Z)-14a-((cyclopropylsulfonyl)carbamoyl)-2-((7-fluoro-5-methoxyisoquinolin-1-yl)oxy)-7,9-dimethyl-5,16-dioxo-1,2,3,5,6,7,8,9,10,11,13a,14,14a,15,16,16a-hexadecahydrocyclopropa[e]pyrrolo[1,2-a][1,4]diazacyclopentadecin-6-yl)carbamate]",4.82 to 103,4.82 to 103
"COc1cc(F)cc2c(O[C@@H]3C[C@H]4C(=O)N[C@]5(C(=O)NS(=O)(=O)C6CC6)C[C@H]5/C=C\CC[C@@H](C)C[C@@H](C)[C@H](NC(=O)OC(C)(C)C)C(=O)N4C3)nccc12 [Compound 3164, tert-butyl ((2R,6S,7R,9R,13aS,14aR,16aS,Z)-14a-((cyclopropylsulfonyl)carbamoyl)-2-((7-fluoro-5-methoxyisoquinolin-1-yl)oxy)-7,9-dimethyl-5,16-dioxo-1,2,3,5,6,7,8,9,10,11,13a,14,14a,15,16,16a-hexadecahydrocyclopropa[e]pyrrolo[1,2-a][1,4]diazacyclopentadecin-6-yl)carbamate]",< 5.46,< 5.46
"COc1cc(F)cc2c(O[C@@H]3C[C@H]4C(=O)N[C@]5(C(=O)NS(=O)(=O)C6CC6)C[C@H]5/C=C\CC[C@H](C)C[C@@H](C)[C@H](NC(=O)OC(C)(C)C(F)(F)F)C(=O)N4C3)nccc12 [Compound 3165, 1,1,1-trifluoro-2-methylpropan-2-yl((2R,6S,7R,9S,13aS,14aR,16aS,Z)-14a-((cyclopropylsulfonyl)carbamoyl)-2-((7-fluoro-5-methoxyisoquinolin-1-yl)oxy)-7,9-dimethyl-5,16-dioxo-1,2,3,5,6,7,8,9,10,11,13a,14,14a,15,16,16a-hexadecahydrocyclopropa[e]pyrrolo[1,2-a][1,4]diazacyclopentadecin-6-yl)carbamate]",4.82 to 103,4.82 to 103
"COc1cc(F)cc2c(O[C@@H]3C[C@H]4C(=O)N[C@]5(C(=O)NS(=O)(=O)C6CC6)C[C@H]5/C=C\CC[C@@H](C)C[C@@H](C)[C@H](NC(=O)OC(C)(C)C(F)(F)F)C(=O)N4C3)nccc12 [Compound 3166, 1,1,1-trifluoro-2-methylpropan-2-yl((2R,6S,7R,9R,13aS,14aR,16aS,Z)-14a-((cyclopropylsulfonyl)carbamoyl)-2-((7-fluoro-5-methoxyisoquinolin-1-yl)oxy)-7,9-dimethyl-5,16-dioxo-1,2,3,5,6,7,8,9,10,11,13a,14,14a,15,16,16a-hexadecahydrocyclopropa[e]pyrrolo[1,2-a][1,4]diazacyclopentadecin-6-yl)carbamate]",< 5.46,< 5.46
"COc1cc(F)cc2c(O[C@@H]3C[C@H]4C(=O)N[C@]5(C(=O)NS(=O)(=O)C6CC6)C[C@H]5/C=C\CC[C@H](C)C[C@@H](C)[C@H](NC(=O)O[C@@H]5C[C@@H]6C[C@@H]6C5)C(=O)N4C3)nccc12 [Compound 3167, (1R,3r,5S)-bicyclo[3.1.0]hexan-3-yl((2R,6S,7R,9S,13aS,14aR,16aS,Z)-14a-((cyclopropylsulfonyl)carbamoyl)-2-((7-fluoro-5-methoxyisoquinolin-1-yl)oxy)-7,9-dimethyl-5,16-dioxo-1,2,3,5,6,7,8,9,10,11,13a,14,14a,15,16,16a-hexadecahydrocyclopropa[e]pyrrolo[1,2-a][1,4]diazacyclopentadecin-6-yl)carbamate]",4.82 to 103,< 5.46
"COc1cc(F)cc2c(O[C@@H]3C[C@H]4C(=O)N[C@]5(C(=O)NS(=O)(=O)C6CC6)C[C@H]5/C=C\CC[C@@H](C)C[C@@H](C)[C@H](NC(=O)O[C@@H]5C[C@@H]6C[C@@H]6C5)C(=O)N4C3)nccc12 [Compound 3168, (1R,3r,5S)-bicyclo[3.1.0]hexan-3-yl((2R,6S,7R,9R,13aS,14aR,16aS,Z)-14a-((cyclopropylsulfonyl)carbamoyl)-2-((7-fluoro-5-methoxyisoquinolin-1-yl)oxy)-7,9-dimethyl-5,16-dioxo-1,2,3,5,6,7,8,9,10,11,13a,14,14a,15,16,16a-hexadecahydrocyclopropa[e]pyrrolo[1,2-a][1,4]diazacyclopentadecin-6-yl)carbamate]",< 5.46,< 5.46
"COc1cc(F)cc2c(O[C@@H]3C[C@H]4C(=O)N[C@]5(C(=O)NS(=O)(=O)C6CC6)C[C@H]5/C=C\CC[C@H](C)C[C@@H](C)[C@H](NC(=O)O[C@H](C)C(F)(F)F)C(=O)N4C3)nccc12 [Compound 3169, (R)-1,1,1-trifluoropropan-2-yl ((2R,6S,7R,9S,13aS,14aR,16aS,Z)-14a-((cyclopropylsulfonyl)carbamoyl)-2-((7-fluoro-5-methoxyisoquinolin-1-yl)oxy)-7,9-dimethyl-5,16-dioxo-1,2,3,5,6,7,8,9,10,11,13a,14,14a,15,16,16a-hexadecahydrocyclopropa[e]pyrrolo[1,2-a][1,4]diazacyclopentadecin-6-yl)carbamate]",4.82 to 103,< 5.46
"COc1cc(F)cc2c(O[C@@H]3C[C@H]4C(=O)N[C@]5(C(=O)NS(=O)(=O)C6CC6)C[C@H]5/C=C\CC[C@@H](C)C[C@@H](C)[C@H](NC(=O)O[C@H](C)C(F)(F)F)C(=O)N4C3)nccc12 [Compound 3170, (R)-1,1,1-trifluoropropan-2-yl ((2R,6S,7R,9R,13aS,14aR,16aS,Z)-14a-((cyclopropylsulfonyl)carbamoyl)-2-((7-fluoro-5-methoxyisoquinolin-1-yl)oxy)-7,9-dimethyl-5,16-dioxo-1,2,3,5,6,7,8,9,10,11,13a,14,14a,15,16,16a-hexadecahydrocyclopropa[e]pyrrolo[1,2-a][1,4]diazacyclopentadecin-6-yl)carbamate]",< 5.46,< 5.46
